Earlier results in patent US20230349886A1, “SYSTEMS AND METHODS FOR PREDICTING CARDIOTOXICITY OF MOLECULAR PARAMETERS OF A COMPOUND BASED ON MACHINE LEARNING ALGORITHMS” (UTI Limited Partnership, priority 2015, published 2023).
Like-named read-outs stand apart in the source and are kept apart here.

Legend:
[1] = Brown dataset; flag given as 1 or 0
Nav1.5 = Nav1.5 (Homo sapiens, UniProt Q14524); for NAV1.5 max inhib: test concentration or dose not given here
Cav1.2 = Cav1.2 (Homo sapiens, UniProt Q13936); for CAV1.2 max inhib: test concentration or dose not given here
Sequence of Cav1.2 (Q13936 1-2138 isoform Q13936-12): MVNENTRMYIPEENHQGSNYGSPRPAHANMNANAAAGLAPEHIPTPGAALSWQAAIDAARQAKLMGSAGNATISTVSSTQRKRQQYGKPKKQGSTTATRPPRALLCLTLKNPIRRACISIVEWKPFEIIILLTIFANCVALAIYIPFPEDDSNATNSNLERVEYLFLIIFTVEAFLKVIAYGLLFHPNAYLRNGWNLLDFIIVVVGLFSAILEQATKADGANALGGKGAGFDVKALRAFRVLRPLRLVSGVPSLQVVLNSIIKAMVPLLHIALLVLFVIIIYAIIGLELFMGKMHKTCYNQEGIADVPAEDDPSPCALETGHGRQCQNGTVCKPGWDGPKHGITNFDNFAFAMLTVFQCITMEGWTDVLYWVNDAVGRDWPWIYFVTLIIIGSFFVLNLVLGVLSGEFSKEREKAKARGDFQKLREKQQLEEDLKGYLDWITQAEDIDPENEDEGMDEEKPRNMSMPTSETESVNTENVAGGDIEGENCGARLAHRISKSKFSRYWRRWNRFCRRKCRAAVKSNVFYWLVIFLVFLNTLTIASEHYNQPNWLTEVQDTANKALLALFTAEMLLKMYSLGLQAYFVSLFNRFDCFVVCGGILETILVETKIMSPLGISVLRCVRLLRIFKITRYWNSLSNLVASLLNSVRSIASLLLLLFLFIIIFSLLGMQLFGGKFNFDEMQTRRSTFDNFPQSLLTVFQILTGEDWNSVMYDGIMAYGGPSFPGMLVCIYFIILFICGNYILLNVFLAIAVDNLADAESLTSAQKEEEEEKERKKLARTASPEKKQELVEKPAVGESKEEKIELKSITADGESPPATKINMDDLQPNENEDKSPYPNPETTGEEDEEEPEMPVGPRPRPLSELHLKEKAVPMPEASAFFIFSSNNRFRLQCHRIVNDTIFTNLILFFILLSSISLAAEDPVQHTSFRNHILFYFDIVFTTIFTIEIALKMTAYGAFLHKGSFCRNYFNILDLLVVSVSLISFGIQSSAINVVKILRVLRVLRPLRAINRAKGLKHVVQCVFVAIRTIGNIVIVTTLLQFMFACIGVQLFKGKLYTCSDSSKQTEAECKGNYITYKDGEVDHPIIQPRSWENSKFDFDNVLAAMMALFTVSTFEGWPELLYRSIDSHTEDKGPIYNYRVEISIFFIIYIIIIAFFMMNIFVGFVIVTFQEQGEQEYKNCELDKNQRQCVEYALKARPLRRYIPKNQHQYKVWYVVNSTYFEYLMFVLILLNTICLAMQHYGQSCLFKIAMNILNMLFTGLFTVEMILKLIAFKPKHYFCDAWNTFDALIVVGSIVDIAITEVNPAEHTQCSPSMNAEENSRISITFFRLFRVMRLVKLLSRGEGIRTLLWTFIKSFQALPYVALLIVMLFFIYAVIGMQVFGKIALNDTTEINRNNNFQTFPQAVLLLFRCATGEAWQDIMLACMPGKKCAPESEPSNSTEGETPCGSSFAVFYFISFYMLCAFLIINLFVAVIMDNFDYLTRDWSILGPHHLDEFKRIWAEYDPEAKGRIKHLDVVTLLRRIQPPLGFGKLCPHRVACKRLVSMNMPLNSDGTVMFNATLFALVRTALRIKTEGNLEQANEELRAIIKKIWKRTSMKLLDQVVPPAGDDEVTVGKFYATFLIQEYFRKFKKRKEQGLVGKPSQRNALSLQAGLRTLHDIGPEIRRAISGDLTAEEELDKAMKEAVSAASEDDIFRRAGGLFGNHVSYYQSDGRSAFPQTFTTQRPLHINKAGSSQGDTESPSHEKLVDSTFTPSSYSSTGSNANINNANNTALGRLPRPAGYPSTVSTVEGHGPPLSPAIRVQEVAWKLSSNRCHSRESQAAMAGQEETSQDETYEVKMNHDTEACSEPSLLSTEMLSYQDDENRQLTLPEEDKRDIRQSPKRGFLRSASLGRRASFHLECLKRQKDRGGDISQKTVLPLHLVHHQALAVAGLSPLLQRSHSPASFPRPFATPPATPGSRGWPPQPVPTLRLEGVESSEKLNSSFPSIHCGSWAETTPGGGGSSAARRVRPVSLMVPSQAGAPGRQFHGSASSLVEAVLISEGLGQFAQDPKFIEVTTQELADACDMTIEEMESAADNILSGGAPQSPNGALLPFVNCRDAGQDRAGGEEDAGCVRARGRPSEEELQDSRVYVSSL
Sequence of Cav1.2 (Q08289 whole entry partner): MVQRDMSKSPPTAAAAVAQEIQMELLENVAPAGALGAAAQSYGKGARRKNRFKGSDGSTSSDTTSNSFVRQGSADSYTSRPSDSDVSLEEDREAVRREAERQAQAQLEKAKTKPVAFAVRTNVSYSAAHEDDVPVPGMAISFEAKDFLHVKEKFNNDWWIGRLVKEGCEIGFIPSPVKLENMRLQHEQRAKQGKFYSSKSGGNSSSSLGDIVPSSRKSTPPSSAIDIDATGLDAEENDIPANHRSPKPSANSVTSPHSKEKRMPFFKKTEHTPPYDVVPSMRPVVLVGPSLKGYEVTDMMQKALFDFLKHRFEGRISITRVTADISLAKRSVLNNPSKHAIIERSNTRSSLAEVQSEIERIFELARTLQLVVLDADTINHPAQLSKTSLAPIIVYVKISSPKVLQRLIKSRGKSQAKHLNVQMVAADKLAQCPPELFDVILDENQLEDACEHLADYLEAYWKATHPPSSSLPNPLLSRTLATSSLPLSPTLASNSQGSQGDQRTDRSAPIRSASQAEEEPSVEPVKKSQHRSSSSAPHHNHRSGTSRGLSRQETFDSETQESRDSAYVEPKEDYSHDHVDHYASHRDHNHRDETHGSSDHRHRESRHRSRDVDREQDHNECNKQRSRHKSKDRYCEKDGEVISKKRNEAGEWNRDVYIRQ
Sequence of Cav1.2 (P54289 25-946 partner limits assumed): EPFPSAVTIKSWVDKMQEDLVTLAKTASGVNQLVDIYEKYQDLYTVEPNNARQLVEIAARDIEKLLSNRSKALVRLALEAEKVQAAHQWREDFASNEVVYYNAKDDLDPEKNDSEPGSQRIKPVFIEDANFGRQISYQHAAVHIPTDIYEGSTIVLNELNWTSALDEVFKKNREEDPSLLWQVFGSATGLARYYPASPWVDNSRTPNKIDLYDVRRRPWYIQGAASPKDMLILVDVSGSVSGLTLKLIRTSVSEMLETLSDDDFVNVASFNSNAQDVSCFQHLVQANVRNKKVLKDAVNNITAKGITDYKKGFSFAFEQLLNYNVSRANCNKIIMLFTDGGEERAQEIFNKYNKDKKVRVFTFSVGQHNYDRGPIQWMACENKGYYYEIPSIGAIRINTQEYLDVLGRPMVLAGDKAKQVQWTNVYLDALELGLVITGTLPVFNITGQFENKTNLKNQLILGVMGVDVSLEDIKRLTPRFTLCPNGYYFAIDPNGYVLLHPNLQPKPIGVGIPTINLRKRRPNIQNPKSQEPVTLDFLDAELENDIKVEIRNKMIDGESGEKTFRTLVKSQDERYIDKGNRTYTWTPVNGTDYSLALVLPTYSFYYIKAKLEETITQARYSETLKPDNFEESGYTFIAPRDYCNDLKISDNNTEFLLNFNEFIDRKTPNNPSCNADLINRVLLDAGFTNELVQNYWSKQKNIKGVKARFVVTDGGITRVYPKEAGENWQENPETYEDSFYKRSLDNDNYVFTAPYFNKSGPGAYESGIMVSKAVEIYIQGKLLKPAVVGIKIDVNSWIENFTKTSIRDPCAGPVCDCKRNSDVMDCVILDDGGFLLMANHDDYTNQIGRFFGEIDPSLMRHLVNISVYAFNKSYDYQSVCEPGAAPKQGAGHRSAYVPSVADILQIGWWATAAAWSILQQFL
Sequence of Cav1.2 (P54289 947-1103 partner limits assumed): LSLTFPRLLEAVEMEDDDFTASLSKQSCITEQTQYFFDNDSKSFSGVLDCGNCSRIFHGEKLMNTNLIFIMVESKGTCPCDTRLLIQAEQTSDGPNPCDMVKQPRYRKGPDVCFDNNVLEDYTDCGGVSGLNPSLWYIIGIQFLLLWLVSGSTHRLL

hERG = hERG (Homo sapiens, UniProt Q12809); for HERG maxInhib: test concentration or dose not given here
Sequence of hERG (Q12809 whole entry): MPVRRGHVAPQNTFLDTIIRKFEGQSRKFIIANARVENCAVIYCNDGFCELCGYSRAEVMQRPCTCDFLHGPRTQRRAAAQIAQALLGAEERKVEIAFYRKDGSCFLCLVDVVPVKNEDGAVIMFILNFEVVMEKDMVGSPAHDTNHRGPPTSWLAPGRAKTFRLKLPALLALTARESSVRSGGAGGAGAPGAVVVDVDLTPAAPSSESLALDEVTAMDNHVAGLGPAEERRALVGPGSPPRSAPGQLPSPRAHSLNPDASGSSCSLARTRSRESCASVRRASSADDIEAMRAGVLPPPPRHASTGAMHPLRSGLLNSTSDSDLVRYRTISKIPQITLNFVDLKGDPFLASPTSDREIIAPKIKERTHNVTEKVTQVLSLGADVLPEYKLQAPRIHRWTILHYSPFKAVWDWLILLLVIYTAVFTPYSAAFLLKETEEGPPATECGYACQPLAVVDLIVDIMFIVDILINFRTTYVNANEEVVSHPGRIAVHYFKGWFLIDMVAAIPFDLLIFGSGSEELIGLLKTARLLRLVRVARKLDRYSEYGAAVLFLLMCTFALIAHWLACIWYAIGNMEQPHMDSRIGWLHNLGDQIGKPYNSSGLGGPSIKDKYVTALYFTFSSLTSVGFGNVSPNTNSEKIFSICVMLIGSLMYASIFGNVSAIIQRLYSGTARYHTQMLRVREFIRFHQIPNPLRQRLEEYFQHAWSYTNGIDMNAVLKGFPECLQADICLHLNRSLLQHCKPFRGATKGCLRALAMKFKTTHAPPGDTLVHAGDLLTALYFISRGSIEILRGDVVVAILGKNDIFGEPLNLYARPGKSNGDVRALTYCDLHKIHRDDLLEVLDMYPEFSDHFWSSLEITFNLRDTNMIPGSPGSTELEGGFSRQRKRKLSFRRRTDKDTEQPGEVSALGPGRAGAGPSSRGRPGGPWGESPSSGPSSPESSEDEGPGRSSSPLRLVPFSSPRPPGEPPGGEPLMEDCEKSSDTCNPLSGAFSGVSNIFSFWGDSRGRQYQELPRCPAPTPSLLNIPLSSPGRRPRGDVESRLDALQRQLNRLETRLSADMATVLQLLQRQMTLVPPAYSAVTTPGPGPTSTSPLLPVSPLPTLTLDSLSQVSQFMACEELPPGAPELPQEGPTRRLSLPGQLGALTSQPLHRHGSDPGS

[2] = for Free drug: experimental data file, Kramer et al. 2013; for pFD: negative log of free drug
[3] = read-out: NAV1.5 IC50, Brown dataset
[4] = read-out: CAV1.2 IC50, Brown dataset
[5] = Table 11, calculated from HERG-IC50 of the Kramer et al. 2013 data
[6] = read-out: HERG IC50, Brown dataset
[7] = experimental data, Kramer et al. 2013
[8] = maximal inhibition, Kramer et al. 2013

| Compound | Ris (TdP risk flag) [1] | NAV1.5 max inhib (Nav1.5; Brown dataset) | IC50 (Nav1.5; [3]) [µM] | CAV1.2 max inhib (Cav1.2; Brown dataset) | IC50 (Cav1.2; [4]) [µM] | HERG maxInhib (hERG; Brown dataset) | also measured |
| --- | --- | --- | --- | --- | --- | --- | --- |
| COc1cc(N)c(Cl)cc1C(=O)NC1CCN(CCCOc2ccc(F)cc2)CC1OC (stereo not shown) [cisapride] | 1 | 22.9 | 337 | 42.8 | 11.8 |  |  |
| CCC(=O)C(CC(C)N(C)C)(c1ccccc1)c1ccccc1 (stereo not shown) [methadone] | 1 | 100 | 31.8 | 96.9 |  | 91.6 | pIC50 (hERG; [5]): 5.456; IC50 (hERG; [6]): 3.5 µM |
| C=C[C@H]1C[N@@]2CC[C@H]1C[C@@H]2[C@@H](O)c1ccnc2ccc(OC)cc12 [quinidine] | 1 | 97.5 |  | 58 |  |  |  |
| O=C(CCCN1CCC(O)(c2ccc(Cl)cc2)CC1)c1ccc(F)cc1 [haloperidol] |  | 96.6 |  | 94 |  |  | HERG maxInhib (hERG): 89.2 |
| CCN(CC)CCNC(=O)c1c(C)[nH]c(/C=C2\C(=O)Nc3ccc(F)cc32)c1C [sunitinib] | 1 | 66.4 |  | 61.5 | 33.4 |  |  |
| COc1c(N2C[C@@H]3CCCN[C@@H]3C2)c(F)cc2c(=O)c(C(=O)O)cn(C3CC3)c12 [moxifloxacin] |  | 17.4 |  | 53.7 |  | 75.9 |  |
| CCCCN(CCCC)CCC(O)c1cc2c(Cl)cc(Cl)cc2c2cc(C(F)(F)F)ccc12 (stereo not shown) [halofantrin] |  | 8.3 | 331 |  |  |  | HERG maxInhib (hERG): 77.9; HERG pIC50 (hERG): 6.4202 403; IC50 (hERG): 0.38 µM |
| chlorpromazine |  |  |  |  |  |  | Free drug [2]: 0.038 µM; pFD [2]: 7.42; pIC50 (hERG; [5]): 5.824; HERG-pIC50 (hERG; [7]): 5.824; HERG-maxinhib (hERG; [8]): 96.7; IC50 (hERG; read-out: HERG-IC50, experimental data, Kramer et al. 2013): 1.5 µM; NAV1p5-pIC50 (Nav1.5; [7]): 5.523; NAV1p5-maxinhib (Nav1.5; [8]): 97.1; IC50 (Nav1.5; read-out: NAV1p5-IC50, experimental data, Kramer et al. 2013): 3 µM; CAV1p2-pIC50 (Cav1.2; [7]): 5.469; CAV1p2-maxinhib (Cav1.2; [8]): 99.2; IC50 (Cav1.2; read-out: CAV1p2-IC50, experimental data, Kramer et al. 2013): 3.4 µM |
| CCOC(=O)C1=C(C)NC(C)=C(C(=O)OC)C1c1cccc([N+](=O)[O-])c1 (stereo not shown) [nitrendipine] | 0 | 86.3 | 21.6 | 74.6 |  | 68.3 | pIC50 (hERG; [5]): 4.609; IC50 (hERG; [6]): 24.6 µM |
| N[C@@H](CC(=O)N1CCn2c(nnc2C(F)(F)F)C1)Cc1cc(F)c(F)cc1F [sitagliptin] | 0 | 18.3 | 1220 | 35.8 | 147 | 35.6 |  |
| O=C1NCCN1CCN1CCC(c2cn(-c3ccc(F)cc3)c3ccc(Cl)cc23)CC1 [sertindole] | 1 | 95.5 | 6.9 | 91.5 | 6.3 |  |  |
| CN(C)CCCN1c2ccccc2Sc2ccc(Cl)cc21 [chlorprom ne] | 1 |  |  |  |  | 96.7 | IC50 (hERG; [6]): 1.5 µM |
| CC(C)(C)NC(=O)[C@@H]1C[C@@H]2CCCC[C@@H]2CN1C[C@@H](O)[C@H](Cc1ccccc1)NC(=O)[C@H](CC(N)=O)NC(=O)c1ccc2ccccc2n1 [saquinavir] |  |  |  |  |  | 73.1 | pIC50 (hERG; [5]): 4.772; IC50 (hERG; [6]): 16.9 µM |
| Cc1nc2n(c(=O)c1CCN1CCC(c3noc4cc(F)ccc34)CC1)CCCC2O (stereo not shown) [paliperidone] | 1 | 51.2 | 109 | 33.1 | 194 |  |  |
| O=c1[nH]c2ccccc2n1C1CCN(CCCC(c2ccc(F)cc2)c2ccc(F)cc2)CC1 [pimozide] | 1 |  |  | 88.1 |  |  | HERG maxInhib (hERG): 91.3 |
| CCCCN(CCCC)CCC(O)c1cc2c(Cl)cc(Cl)cc2c2cc(C(F)(F)F)ccc12 (stereo not shown) [halofantrine] |  |  |  |  |  |  | pIC50 (hERG): 6.42 |
| NC(=O)c1ncn([C@@H]2O[C@H](CO)[C@@H](O)[C@H]2O)n1 [ribavirin] | 0 | 6.9 | 3000 | 31.9 | 622 | 21.4 | pIC50 (hERG; [5]): 3.015; IC50 (hERG; [6]): 967 µM |
| CNCC[C@H](Oc1cccc2ccccc12)c1cccs1 [duloxetine] | 0 |  |  | 99.8 | 2.8 |  | HERG maxInhib (hERG): 96.3; NAV1.5 max inhib (Nav1.5): 100; IC50 (Nav1.5; read-out: NAV1.5 IC50): 5.1 µM |
| CSc1ccc2c(c1)N(CCC1CCCCN1C)c1ccccc1S2 (stereo not shown) [thioridazine] |  | 99.3 |  | 82.9 |  |  |  |
| CCCC(C)C1(CC)C(=O)NC(=O)NC1=O (stereo not shown) [pentobarbital] | 0 | 9 | 2690 | 82.1 | 299 |  | HERG maxInhib (hERG): 39.5; HERG pIC50 (hERG): 2.843 135; IC50 (hERG): 1430 µM; pIC50 (hERG): 2.843 |
| C[C@@H](c1ncncc1F)[C@](O)(Cn1cncn1)c1ccc(F)cc1F [voriconazole] |  | 15.8 | 1550 | 40.9 | 414 |  |  |

| Compound | Ris (TdP risk flag) [1] | NAV1.5 max inhib (Nav1.5; Brown dataset) | IC50 (Nav1.5; [3]) [µM] | CAV1.2 max inhib (Cav1.2; Brown dataset) | IC50 (Cav1.2; [4]) [µM] | HERG maxInhib (hERG; Brown dataset) | also measured |
| --- | --- | --- | --- | --- | --- | --- | --- |
| CCOC(=O)N1CCC(=C2c3ccc(Cl)cc3CCc3cccnc32)CC1 [loratadine] | 0 |  |  |  |  |  |  |
| cilostazol | 1 | 22.9 | 93.7 | 24.6 | 91.2 | 65.9 | pIC50 (hERG; [5]): 4.86; IC50 (hERG; [6]): 13.8 µM |
| CCCCc1oc2ccccc2c1C(=O)c1cc(I)c(OCCN(CC)CC)c(I)c1 [amiodaron] | 1 |  |  |  |  |  |  |
| CC(C)N(CCC(C(N)=O)(c1ccccc1)c1ccccn1)C(C)C (stereo not shown) [disopyrami] |  | 68.9 | 168 |  |  |  | CAV1.2 max inhib (Cav1.2): 22.1; CAV1.2 pIC50 (Cav1.2): 2.9843 902; IC50 (Cav1.2): 1040 µM |
| CCN(CC)CCNC(=O)c1ccc(N)cc1 [procainamide] |  |  |  |  |  | 50.7 |  |
| C[C@@H]1CN(c2c(F)c(N)c3c(=O)c(C(=O)O)cn(C4CC4)c3c2F)C[C@H](C)N1 [sparfloxacin] | 1 | 0.8 | 2560 | 50.3 | 88.8 |  | HERG maxInhib (hERG): 81.5; HERG pIC50 (hERG): 4.656 726; IC50 (hERG): 22.1 µM; pIC50 (hERG): 4.656 |
| CC(CC(c1ccccc1)c1ccccc1)NC(C)(C)C (stereo not shown) [terodiline] | 1 | 100 | 7.4 | 95.4 | 4.8 |  |  |
| CC(=O)NC[C@H]1CN(c2ccc(N3CCOCC3)c(F)c2)C(=O)O1 [linezolid] | 0 | 9.6 | 2640 | 70.3 | 105 | 19.3 | pIC50 (hERG; [5]): 2.94; IC50 (hERG; [6]): 1150 µM |
| COCC(=O)O[C@]1(CCN(C)CCCc2nc3ccccc3[nH]2)CCc2cc(F)ccc2[C@@H]1C(C)C [mibefradil] | 0 | 100 |  | 92.1 |  |  |  |
| CN(CCOc1ccc(NS(C)(=O)=O)cc1)CCc1ccc(NS(C)(=O)=O)cc1 [dofetilide] | 1 |  |  | 54.2 |  |  |  |
| O=C(CCCN1CC=C(n2c(=O)[nH]c3ccccc32)CC1)c1ccc(F)cc1 [droperidol] | 1 | 59 | 22.7 | 83.4 | 7.6 |  |  |
| CC(C)(C)c1ccc(C(O)CCCN2CCC(C(O)(c3ccccc3)c3ccccc3)CC2)cc1 (stereo not shown) [terfenadine] |  | 99 |  | 98 |  |  |  |
| Cc1cn([C@@H]2C[C@@H](O)[C@H](CO)O2)c(=O)[nH]c1=O [telbivudine] |  | 15.1 | 1100 | 22.1 | 714 | 17.4 | pIC50 (hERG; [5]): 3.374; IC50 (hERG; [6]): 423 µM |
| CN1CCN(C2=Nc3cc(Cl)ccc3Nc3ccccc32)CC1 [clozapine] |  | 91.8 | 15.1 | 73.5 |  | 97.7 |  |
| O=C(O[C@H]1CN2CCC1CC2)N1CCc2ccccc2[C@@H]1c1ccccc1 [solifenacin] |  | 100 |  | 96.4 |  |  |  |
| Cc1cn(-c2cc(NC(=O)c3ccc(C)c(Nc4nccc(-c5cccnc5)n4)c3)cc(C(F)(F)F)c2)cn1 [nilotinib] |  |  |  | 32.4 |  |  |  |
| CN1C(=O)CN=C(c2ccccc2)c2cc(Cl)ccc21 [diazepam] | 0 |  |  |  |  |  |  |
| CCN1CCN(C(=O)N[C@@H](C(=O)N[C@@H]2C(=O)N3[C@@H]2SC(C)(C)[C@@H]3C(=O)O)c2ccccc2)C(=O)C1=O [piperacillin] |  | 9.7 | 2430 | 15.9 | 1230 |  |  |
| COc1ccc(CCN2CCC(Nc3nc4ccccc4n3Cc3ccc(F)cc3)CC2)cc1 [astemizole] | 1 |  |  |  |  |  | Free drug [2]: 0.0003 µM; pFD [2]: 9.523 |
| CCCCc1oc2ccccc2c1C(=O)c1cc(I)c(OCCN(CC)CC)c(I)c1 [amiodarone] |  |  |  |  |  |  | Free drug [2]: 0.0008 µM; pFD [2]: 9.097 |
